According to patent US20160113919A1 (The Board of Trustees of the Leland Stanford Junior …, priority 2014, published 2016):

System: virulent Mtb strain H37Rv
Format: cell-based, Mycobacterium tuberculosis

Row | SMILES | EC80 (microbicidal activity, TB replication in macrophages) [µM] | microbicidal activity compared with S-CQ or racemic CQ
1 | CCN(CC)CCCC(C)Nc1ccnc2cc(Cl)ccc12 (racemic) [racemic CQ, chloroquine] | ~10 | 
2 | CCN(CC)CCC[C@@H](C)Nc1ccnc2cc(Cl)ccc12 [R-CQ, (R)-chloroquine] | 1 | significantly higher
3 | CCN(CC)CCC[C@H](C)Nc1ccnc2cc(Cl)ccc12 [S-CQ, (S)-chloroquine] | ~10 | 
